Assay: mn = molality of the nth substance listed, in mol/kg
Details: Liquid; for mass density: Constant-volume piezometry; for viscosity: Capillary tube (Ostwald / Ubbelohde) method

O=S(=O)([O-])[O-].[Mg+2] [magnesium sulfate] + O
Details | mass density [kg/m3] | viscosity [mPa·s]
288.57 K, 101 kPa, m1 = 2.224 | 1235.34 | –
288.57 K, 101 kPa, m1 = 2.535 | 1263.36 | –
291.15 K, 101 kPa, m1 = 0.084 | 1008.8 | –
297.7 K, 101 kPa, m1 = 2.224 | 1231.87 | –
297.7 K, 101 kPa, m1 = 2.535 | 1259.83 | –
298.15 K, 100 kPa, m1 = 0.085 | – | 0.9407
298.15 K, 100 kPa, m1 = 0.255 | – | 1.055
298.15 K, 100 kPa, m1 = 0.437 | – | 1.184
298.15 K, 100 kPa, m1 = 0.722 | – | 1.442
298.15 K, 100 kPa, m1 = 0.923 | – | 1.651
298.15 K, 100 kPa, m1 = 1.824 | – | 3.137
298.15 K, 100 kPa, m1 = 2.291 | – | 4.414
298.15 K, 100 kPa, m1 = 2.623 | – | 5.789
298.15 K, 10000 kPa, m1 = 0.085 | – | 0.94
298.15 K, 10000 kPa, m1 = 0.255 | – | 1.054
298.15 K, 10000 kPa, m1 = 0.437 | – | 1.184
298.15 K, 10000 kPa, m1 = 0.722 | – | 1.443
298.15 K, 10000 kPa, m1 = 0.923 | – | 1.653
298.15 K, 10000 kPa, m1 = 1.824 | – | 3.138
298.15 K, 10000 kPa, m1 = 2.291 | – | 4.415
298.15 K, 10000 kPa, m1 = 2.623 | – | 5.79
298.15 K, 30000 kPa, m1 = 0.085 | – | 0.9415
298.15 K, 30000 kPa, m1 = 0.255 | – | 1.056
298.15 K, 30000 kPa, m1 = 0.437 | – | 1.185
298.15 K, 30000 kPa, m1 = 0.722 | – | 1.445
298.15 K, 30000 kPa, m1 = 0.923 | – | 1.655
298.15 K, 30000 kPa, m1 = 1.824 | – | 3.14
298.15 K, 30000 kPa, m1 = 2.291 | – | 4.417
298.15 K, 30000 kPa, m1 = 2.623 | – | 5.792
299.67 K, 2040 kPa, m1 = 2.224 | 1231.7 | –
299.67 K, 7179 kPa, m1 = 2.224 | 1233.3 | –
299.67 K, 16830 kPa, m1 = 2.224 | 1236.3 | –
299.67 K, 22550 kPa, m1 = 2.224 | 1238.2 | –
299.67 K, 29600 kPa, m1 = 2.224 | 1240.3 | –
303.03 K, 101 kPa, m1 = 0.469 | 1050.08 | –
303.15 K, 101 kPa, m1 = 0.841 | 1090.98 | –
308.15 K, 100 kPa, m1 = 0.085 | – | 0.761
308.15 K, 100 kPa, m1 = 0.255 | – | 0.8459
308.15 K, 100 kPa, m1 = 0.437 | – | 0.9437
308.15 K, 100 kPa, m1 = 0.722 | – | 1.151
308.15 K, 100 kPa, m1 = 0.923 | – | 1.305
308.15 K, 100 kPa, m1 = 1.824 | – | 2.415
308.15 K, 100 kPa, m1 = 2.291 | – | 3.374
308.15 K, 100 kPa, m1 = 2.623 | – | 4.352
308.15 K, 10000 kPa, m1 = 0.085 | – | 0.7618
308.15 K, 10000 kPa, m1 = 0.255 | – | 0.8466
308.15 K, 10000 kPa, m1 = 0.437 | – | 0.946
308.15 K, 10000 kPa, m1 = 0.722 | – | 1.153
308.15 K, 10000 kPa, m1 = 0.923 | – | 1.305
308.15 K, 10000 kPa, m1 = 1.824 | – | 2.418
308.15 K, 10000 kPa, m1 = 2.291 | – | 3.376
308.15 K, 10000 kPa, m1 = 2.623 | – | 4.355
308.15 K, 30000 kPa, m1 = 0.085 | – | 0.7645
308.15 K, 30000 kPa, m1 = 0.255 | – | 0.8495
308.15 K, 30000 kPa, m1 = 0.437 | – | 0.9486
